Measurements from article PMC5218480 (PLoS ONE, 2017).

Tested on: MV-4-11 cells
Test: Gene expression microarray analysis (Affymetrix PrimeView) and GSEA
Format: cell-based, human
Design: RFU PODN (11730768_x_at) / Fold change /veh PODN (11730768_x_at) / RFU LINC00158 (11744669_a_at) / Fold change /veh LINC00158 (11744669_a_at) / RFU DUSP10 (11751237_a_at) / Fold change /veh DUSP10 (11751237_a_at) / RFU ID3 (11757404_x_at) / Fold change /veh ID3 (11757404_x_at) / RFU PLEKHG5 (11737974_s_at) / Fold change /veh PLEKHG5 (11737974_s_at) / RFU LRRC4B (11730491_at) / Fold change /veh LRRC4B (11730491_at) / RFU GIMAP4 (11747438_a_at) / Fold change /veh GIMAP4 (11747438_a_at) / RFU KRT8 (11758183_x_at) / Fold change /veh KRT8 (11758183_x_at) / RFU CNN1 (11734310_a_at) / Fold change /veh CNN1 (11734310_a_at) / RFU VPS37D (11726825_at) / Fold change /veh VPS37D (11726825_at) / RFU C10orf10 (11716522_x_at) / Fold change /veh C10orf10 (11716522_x_at) / RFU KIR2DL2 /// KIR2DL4 /// KIR2DL5A /// KIR2DL5B /// KIR2DS1 /// KIR2DS2 /// KIR2DS3 /// KIR2DS4 /// KIR3DL3 /// KIR3DL3 /// KIR3DS1 (11738374_at) / Fold change /veh KIR2DL2 /// KIR2DL4 /// KIR2DL5A /// KIR2DL5B /// KIR2DS1 /// KIR2DS2 /// KIR2DS3 /// KIR2DS4 /// KIR3DL3 /// KIR3DL3 /// KIR3DS1 (11738374_at) / RFU C1QL1 (11718748_at) / Fold change /veh C1QL1 (11718748_at) / RFU TMPRSS4 (11747572_a_at) / Fold change /veh TMPRSS4 (11747572_a_at) / RFU HAMP (11756126_x_at) / Fold change /veh HAMP (11756126_x_at) / RFU RNFT2 (11725882_a_at) / Fold change /veh RNFT2 (11725882_a_at) / RFU NR4A2 (11747474_a_at) / Fold change /veh NR4A2 (11747474_a_at) / RFU ABCC12 (11746883_a_at) / Fold change /veh ABCC12 (11746883_a_at) / RFU TMEM136 (11760407_x_at) / Fold change /veh TMEM136 (11760407_x_at) / RFU CLDN22 /// WWC2 (11732394_at) / Fold change /veh CLDN22 /// WWC2 (11732394_at) / RFU HLA-DPB1 (11760878_x_at) / Fold change /veh HLA-DPB1 (11760878_x_at) / RFU SPINT1 (11716480_a_at) / Fold change /veh SPINT1 (11716480_a_at) / RFU GAP43 (11754022_s_at) / Fold change /veh GAP43 (11754022_s_at) / RFU A4GNT (11735810_at) / Fold change /veh A4GNT (11735810_at) / RFU PRB3 (11715151_x_at) / Fold change /veh PRB3 (11715151_x_at) / RFU TUBB4B (11761932_at) / Fold change /veh TUBB4B (11761932_at) / RFU CAPN14 (11732068_a_at) / Fold change /veh CAPN14 (11732068_a_at) / RFU TMCC2 (11721928_a_at) / Fold change /veh TMCC2 (11721928_a_at) / RFU IRGQ (11745062_a_at) / Fold change /veh IRGQ (11745062_a_at) / RFU FAM174B (11720279_a_at) / Fold change /veh FAM174B (11720279_a_at) / RFU TMPRSS4 (11748680_a_at) / Fold change /veh TMPRSS4 (11748680_a_at) / RFU FAM212B (11763350_a_at) / Fold change /veh FAM212B (11763350_a_at) / RFU PLEKHG5 (11743358_a_at) / Fold change /veh PLEKHG5 (11743358_a_at) / RFU ZSCAN30 (11745921_a_at) / Fold change /veh ZSCAN30 (11745921_a_at) / RFU CMKLR1 (11741424_a_at) / Fold change /veh CMKLR1 (11741424_a_at) / RFU LOC101060620 /// MAPK8IP1 (11723275_at) / Fold change /veh LOC101060620 /// MAPK8IP1 (11723275_at) / RFU SPTSSB (11747773_x_at) / Fold change /veh SPTSSB (11747773_x_at) / RFU PRSS12 (11739890_at) / Fold change /veh PRSS12 (11739890_at) / RFU BIN1 (11741810_x_at) / Fold change /veh BIN1 (11741810_x_at) / RFU WNT11 (11732464_a_at) / Fold change /veh WNT11 (11732464_a_at) / RFU C10orf10 (11716521_a_at) / Fold change /veh C10orf10 (11716521_a_at) / RFU C5orf56 (11738089_at) / Fold change /veh C5orf56 (11738089_at) / RFU CYB561 (11721691_x_at) / Fold change /veh CYB561 (11721691_x_at) / RFU ANKRD19P (11752326_a_at) / Fold change /veh ANKRD19P (11752326_a_at) / RFU OR2T12 /// OR2T33 /// OR2T8 (11738714_s_at) / Fold change /veh OR2T12 /// OR2T33 /// OR2T8 (11738714_s_at) / RFU VCAN (11748164_a_at) / Fold change /veh VCAN (11748164_a_at) / RFU JSRP1 (11732532_at) / Fold change /veh JSRP1 (11732532_at) / RFU KRTAP10-11 (11738290_x_at) / Fold change /veh KRTAP10-11 (11738290_x_at) / RFU MYO3A (11730013_a_at) / Fold change /veh MYO3A (11730013_a_at) / RFU EBF3 (11725865_a_at) / Fold change /veh EBF3 (11725865_a_at) / RFU CAMK2N1 (11719241_x_at) / Fold change /veh CAMK2N1 (11719241_x_at) / RFU C5orf56 (11738088_a_at) / Fold change /veh C5orf56 (11738088_a_at) / RFU OLFML3 (11715873_a_at) / Fold change /veh OLFML3 (11715873_a_at) / RFU LOC100653217 /// NTM (11731650_a_at) / Fold change /veh LOC100653217 /// NTM (11731650_a_at) / RFU MAPK11 (11762145_a_at) / Fold change /veh MAPK11 (11762145_a_at) / RFU FIZ1 (11724087_x_at) / Fold change /veh FIZ1 (11724087_x_at) / RFU OASL (11726364_x_at) / Fold change /veh OASL (11726364_x_at) / RFU SOX15 (11748057_x_at) / Fold change /veh SOX15 (11748057_x_at) / RFU CD79A (11719716_a_at) / Fold change /veh CD79A (11719716_a_at) / RFU HIST1H1D (11736915_at) / Fold change /veh HIST1H1D (11736915_at) / RFU CASKIN2 (11723855_a_at) / Fold change /veh CASKIN2 (11723855_a_at) / RFU LOC730098 (11760151_x_at) / Fold change /veh LOC730098 (11760151_x_at) / RFU OR4N2 (11742367_at) / Fold change /veh OR4N2 (11742367_at) / RFU PRRT2 (11749266_a_at) / Fold change /veh PRRT2 (11749266_a_at) / RFU SNX32 (11753110_a_at) / Fold change /veh SNX32 (11753110_a_at) / RFU CDHR5 (11726645_a_at) / Fold change /veh CDHR5 (11726645_a_at) / RFU RCAN1 (11760418_a_at) / Fold change /veh RCAN1 (11760418_a_at) / RFU FAM167A (11723789_a_at) / Fold change /veh FAM167A (11723789_a_at) / RFU FAM26E (11764081_at) / Fold change /veh FAM26E (11764081_at) / RFU ISYNA1 (11749810_s_at) / Fold change /veh ISYNA1 (11749810_s_at) / RFU ACY1 (11761880_at) / Fold change /veh ACY1 (11761880_at) / RFU 11764098_at / Fold change /veh 11764098_at / RFU SAMD14 (11745864_x_at) / Fold change /veh SAMD14 (11745864_x_at) / RFU NPB (11741838_a_at) / Fold change /veh NPB (11741838_a_at) / RFU TMPRSS6 (11731388_a_at) / Fold change /veh TMPRSS6 (11731388_a_at) / RFU KRTAP10-2 (11738614_at) / Fold change /veh KRTAP10-2 (11738614_at) / RFU ARHGAP8 /// PRR5-ARHGAP8 (11727945_x_at) / Fold change /veh ARHGAP8 /// PRR5-ARHGAP8 (11727945_x_at) / RFU KRTAP5-7 /// NADSYN1 (11734609_at) / Fold change /veh KRTAP5-7 /// NADSYN1 (11734609_at) / RFU RASL12 (11751679_a_at) / Fold change /veh RASL12 (11751679_a_at) / RFU CDKN2B (11736163_a_at) / Fold change /veh CDKN2B (11736163_a_at) / RFU PRF1 (11729649_at) / Fold change /veh PRF1 (11729649_at) / RFU, ZNF638 /// ZNF638-IT1 / Fold change vs veh, ZNF638 /// ZNF638-IT1 / RFU, PANK3 / Fold change vs veh, PANK3 / RFU, SH3YL1 / Fold change vs veh, SH3YL1 / RFU, ZEB2 / Fold change vs veh, ZEB2 / RFU, NRIP1 / Fold change vs veh, NRIP1 / RFU, PTTG1IP / Fold change vs veh, PTTG1IP / RFU, CAPN2 / Fold change vs veh, CAPN2 / RFU, MED14 / Fold change vs veh, MED14 / RFU, SNORA58 / Fold change vs veh, SNORA58 / RFU, C1orf63 / Fold change vs veh, C1orf63 / RFU, LRRFIP1 / Fold change vs veh, LRRFIP1 / RFU, NDUFAF7 / Fold change vs veh, NDUFAF7 / RFU, SLC12A2 / Fold change vs veh, SLC12A2 / RFU, IBTK / Fold change vs veh, IBTK / RFU, ESF1 / Fold change vs veh, ESF1 / Fold change vs veh, TMEM50B / RFU, TAOK1 / Fold change vs veh, TAOK1 / RFU, ACBD3 / Fold change vs veh, ACBD3 / RFU, TMA16 / Fold change vs veh, TMA16 / RFU, RWDD3 / Fold change vs veh, RWDD3 / RFU, BCAT1 / Fold change vs veh, BCAT1 / RFU, EDEM3 / Fold change vs veh, EDEM3 / RFU, TMEM33 / Fold change vs veh, TMEM33 / RFU, WDR75 / Fold change vs veh, WDR75 / RFU, AHCTF1 / Fold change vs veh, AHCTF1 / RFU, TFRC / Fold change vs veh, TFRC / RFU, ZDHHC17 / Fold change vs veh, ZDHHC17 / RFU, NOM1 / Fold change vs veh, NOM1 / RFU, ARL8B / Fold change vs veh, ARL8B / RFU, ZBTB11 / Fold change vs veh, ZBTB11 / RFU, TAMM41 / Fold change vs veh, TAMM41 / RFU, KIAA1704 /// LOC100996395 / Fold change vs veh, KIAA1704 /// LOC100996395 / RFU, ING1 / Fold change vs veh, ING1 / RFU, TRMT61B / Fold change vs veh, TRMT61B / RFU, FUBP3 / Fold change vs veh, FUBP3 / RFU, TP53 / Fold change vs veh, TP53 / RFU, TNKS2 / Fold change vs veh, TNKS2 / RFU, ZFP14 / Fold change vs veh, ZFP14 / RFU, ACTR2 / Fold change vs veh, ACTR2 / RFU, PPP3R1 / Fold change vs veh, PPP3R1 / RFU, PIK3R1 / Fold change vs veh, PIK3R1 / RFU, HNRNPA1 / Fold change vs veh, HNRNPA1 / RFU, RNF170 / Fold change vs veh, RNF170 / RFU, ZNF28 / Fold change vs veh, ZNF28 / RFU, RNGTT / Fold change vs veh, RNGTT / RFU, OGT / Fold change vs veh, OGT / RFU, BRD1 / Fold change vs veh, BRD1 / RFU, MARS / Fold change vs veh, MARS / RFU, ZNF655 / Fold change vs veh, ZNF655 / RFU, FAHD1 / Fold change vs veh, FAHD1 / RFU, BDP1 / Fold change vs veh, BDP1 / RFU, LRRCC1 / Fold change vs veh, LRRCC1 / RFU, ARID1A / Fold change vs veh, ARID1A / RFU, ZNF146 / Fold change vs veh, ZNF146 / RFU, ZNF330 / Fold change vs veh, ZNF330 / RFU, GPN3 / Fold change vs veh, GPN3 / RFU, C9orf123 / Fold change vs veh, C9orf123 / RFU, N4BP2L2 / Fold change vs veh, N4BP2L2 / RFU, ARFIP1 / Fold change vs veh, ARFIP1 / RFU, FAM179B / Fold change vs veh, FAM179B / RFU, BCL10 / Fold change vs veh, BCL10 / RFU, UHRF1BP1L / Fold change vs veh, UHRF1BP1L / RFU, BET1 / Fold change vs veh, BET1 / RFU, CNOT2 / Fold change vs veh, CNOT2 / RFU, ZNF268 / Fold change vs veh, ZNF268 / Fold change vs veh, ZNF507 / RFU, DGCR2 / Fold change vs veh, DGCR2 / RFU, WDSUB1 / Fold change vs veh, WDSUB1 / Fold change vs veh, HSP90B1 /// MIR3652 / RFU, ADSS / Fold change vs veh, ADSS / RFU, GK / Fold change vs veh, GK / RFU, ZNF148 / Fold change vs veh, ZNF148 / RFU, TAF9 / Fold change vs veh, TAF9 / RFU, SLC1A5 / Fold change vs veh, SLC1A5 / RFU, SLMO2 / Fold change vs veh, SLMO2 / RFU, ABCC4 / Fold change vs veh, ABCC4 / RFU, LOC101060439 /// RAP1B / Fold change vs veh, LOC101060439 /// RAP1B / RFU, RFX7 / Fold change vs veh, RFX7 / RFU, GTPBP10 / Fold change vs veh, GTPBP10 / RFU, CNEP1R1 / Fold change vs veh, CNEP1R1 / RFU, BIVM-ERCC5 /// ERCC5 / Fold change vs veh, BIVM-ERCC5 /// ERCC5 / RFU, ILF3 / Fold change vs veh, ILF3 / RFU 11762660_at / Fold change /veh 11762660_at / RFU VCAN (11757783_s_at) / Fold change /veh VCAN (11757783_s_at) / RFU DDX43 (11728927_at) / Fold change /veh DDX43 (11728927_at) / RFU KRT8 (11758188_x_at) / Fold change /veh KRT8 (11758188_x_at) / RFU NKD1 (11759106_at) / Fold change /veh NKD1 (11759106_at) / RFU SRD5A1 (11742802_a_at) / Fold change /veh SRD5A1 (11742802_a_at) / RFU TPSAB1 /// TPSB2 (11721975_s_at) / Fold change /veh TPSAB1 /// TPSB2 (11721975_s_at) / RFU GSTM3 (11746129_a_at) / Fold change /veh GSTM3 (11746129_a_at) / RFU IL23R (11737362_x_at) / Fold change /veh IL23R (11737362_x_at) / RFU TMEM51 (11727254_a_at) / Fold change /veh TMEM51 (11727254_a_at) / RFU PIWIL2 (11732686_x_at) / Fold change /veh PIWIL2 (11732686_x_at) / RFU ORM1 (11744905_x_at) / Fold change /veh ORM1 (11744905_x_at) / RFU CCDC152 (11743942_at) / Fold change /veh CCDC152 (11743942_at) / RFU ECM1 (11717891_a_at) / Fold change /veh ECM1 (11717891_a_at) / RFU IL23R (11748794_a_at) / Fold change /veh IL23R (11748794_a_at) / RFU TNFAIP8L3 (11732012_x_at) / Fold change /veh TNFAIP8L3 (11732012_x_at) / RFU MBOAT4 (11741988_at) / Fold change /veh MBOAT4 (11741988_at) / RFU 11764193_at / Fold change /veh 11764193_at / RFU TMEM53 (11763286_at) / Fold change /veh TMEM53 (11763286_at) / RFU MAGEB2 (11727129_at) / Fold change /veh MAGEB2 (11727129_at) / RFU TMEM200A (11744735_a_at) / Fold change /veh TMEM200A (11744735_a_at) / RFU CCDC152 (11751479_a_at) / Fold change /veh CCDC152 (11751479_a_at) / RFU FAM211A (11726209_a_at) / Fold change /veh FAM211A (11726209_a_at) / RFU RGS16 (11746705_a_at) / Fold change /veh RGS16 (11746705_a_at) / RFU VCAN (11755009_s_at) / Fold change /veh VCAN (11755009_s_at) / RFU RHOB (11743442_s_at) / Fold change /veh RHOB (11743442_s_at) / RFU RGS16 (11720943_a_at) / Fold change /veh RGS16 (11720943_a_at) / RFU RGS16 (11720944_at) / Fold change /veh RGS16 (11720944_at) / RFU, VPS4B / Fold change vs veh, VPS4B / RFU, CREB1 / Fold change vs veh, CREB1 / RFU, DNAJC13 / Fold change vs veh, DNAJC13 / RFU, GNAQ / Fold change vs veh, GNAQ / RFU, CDK5R1 / Fold change vs veh, CDK5R1 / RFU, ZRANB3 / Fold change vs veh, ZRANB3 / RFU, CUL4A / Fold change vs veh, CUL4A / RFU, CCNY / Fold change vs veh, CCNY / RFU, UFL1 / Fold change vs veh, UFL1 / RFU, COG3 / Fold change vs veh, COG3 / RFU, DIAPH2 / Fold change vs veh, DIAPH2 / RFU, SKA2 / Fold change vs veh, SKA2 / RFU, AFF3 / Fold change vs veh, AFF3 / RFU, LMF1 / Fold change vs veh, LMF1 / RFU, IPO11 / Fold change vs veh, IPO11 / RFU, DFFB / Fold change vs veh, DFFB / RFU, FOXP1 / Fold change vs veh, FOXP1 / RFU, CARD8 / Fold change vs veh, CARD8 / RFU, STRN3 / Fold change vs veh, STRN3 / RFU, ADK / Fold change vs veh, ADK / RFU, RASSF2 / Fold change vs veh, RASSF2 / RFU, WIPF1 / Fold change vs veh, WIPF1 / RFU, LARP1B / Fold change vs veh, LARP1B / RFU, RASA1 / Fold change vs veh, RASA1 / RFU, RB1 / Fold change vs veh, RB1 / RFU, PPFIA1 / Fold change vs veh, PPFIA1 / RFU, MAT2A / Fold change vs veh, MAT2A / RFU, CCT5 / Fold change vs veh, CCT5 / RFU, WDR92 / Fold change vs veh, WDR92 / RFU, CUX1 / Fold change vs veh, CUX1 / RFU, TTC7A / Fold change vs veh, TTC7A / RFU, TMEM135 / Fold change vs veh, TMEM135 / RFU, DEPTOR / Fold change vs veh, DEPTOR / RFU, CPM / Fold change vs veh, CPM / RFU, DNAJB6 / Fold change vs veh, DNAJB6 / RFU, CACNA2D3 / Fold change vs veh, CACNA2D3 / RFU, DTX4 / Fold change vs veh, DTX4 / RFU, TFCP2 / Fold change vs veh, TFCP2 / RFU, GMCL1 /// GMCL1P1 / Fold change vs veh, GMCL1 /// GMCL1P1 / RFU, AEBP2 / Fold change vs veh, AEBP2 / RFU, SNHG1 /// SNORD22 /// SNORD25 /// SNORD26 /// SNORD27 /// SNORD28 /// SNORD29 /// SNORD31 / Fold change vs veh, SNHG1 /// SNORD22 /// SNORD25 /// SNORD26 /// SNORD27 /// SNORD28 /// SNORD29 /// SNORD31 / Fold change (Aza/veh), C12orf56 (ProbeSet 11735607_a_at) / Fold change (ACY-1035/veh), C12orf56 (ProbeSet 11735607_a_at) / Fold change (Aza/veh), FGFR1OP (ProbeSet 11751329_s_at) / Fold change (ACY-1035/veh), FGFR1OP (ProbeSet 11751329_s_at) / Fold change (Aza/veh), VPS36 (ProbeSet 11739960_a_at) / Fold change (ACY-1035/veh), VPS36 (ProbeSet 11739960_a_at) / RFU SYPL1 (11715823_x_at) / Fold change /veh SYPL1 (11715823_x_at) / RFU IGFBP7 (11715501_s_at) / Fold change /veh IGFBP7 (11715501_s_at) / RFU REEP3 (11722064_at) / Fold change /veh REEP3 (11722064_at) / RFU IGLL1 (11728026_x_at) / Fold change /veh IGLL1 (11728026_x_at): dose or concentration left out as unconfirmed
Conditions: ProbeSet 11716891_at; LIST B

Compound: Nc1ccc(-c2cccs2)cc1NC(=O)c1ccc2c(c1)cc(C1CC1)n2CCN1CCOCC1 [ACY-1035]
- Fold change vs veh, C9orf123: 1.03
